From publication PMC4890880 (ACS infectious diseases, 2016)
Where two headings read alike, the source gives them in different places.

Tests used:
HepG2-A16-CD81EGFP cells [1] = assay: cells; settings: Homo sapiens, HepG2, read-out: % inhibition
HepG2-A16-CD81EGFP cells [2] = assay: cells; settings: Homo sapiens, HepG2, read-out: % inhibition; remark: listed apart in the source
[3] = system: Plasmodium berghei (Pb-Luc) exoerythrocytic-stage parasites; assay: microbe, parasite or virus in culture
[4] = read-out: Inhibition% @ 50 uM rep1
[5] = read-out: Inhibition% @ 50 uM rep2

Structure (SMILES)	inhibition at 50 µM (HepG2-A16-CD81EGFP cells [1]) [%]	inhibition at 50 µM (HepG2-A16-CD81EGFP cells [2]) [%]	inhibition at 50 µM [3, 4] [%]	inhibition at 50 µM [3, 5] [%]
CCOC(=O)c1c(C)n(-c2ccc(Cl)cc2)c2ccc(OC(=O)C=Cc3ccccc3)cc12 [MMV666600]	70.5	68.1	104	104
COc1ccc(C(=O)Nc2nonc2-c2ccc(OC)c(OC)c2)cc1Cl [MMV011567]	-1.34	2.69	58	80
O=C(Nc1ccc(Cl)cc1C(=O)Nc1ccncc1)c1ccc(Cl)cc1Cl [MMV666057]	78.3	94.5	101	102
Oc1ccccc1CN1CCC2(CCCN(Cc3ccccc3F)C2)C1 (stereo not drawn) [MMV666116]	73.5	85.7	98	100
CCN(CC)S(=O)(=O)c1ccc(-c2csc(Nc3ccc(C)c(C)c3)n2)cc1 [MMV009108]	72.2	80.9	97	96
CCOC(=O)c1ccc2nc(-c3ccccc3)cc(O)c2c1 [MMV006457]	78.2	82.5	102	104
CCOc1ccc(-c2nc(NC(=O)c3cccc(S(C)(=O)=O)c3)sc2C)cc1 [MMV665913]	60.5	62.9	95	98
COc1ccc(-c2nc3cc(Cc4ccc5[nH]c(-c6ccc(OC)cc6)nc5c4)ccc3[nH]2)cc1 [MMV007384]	96	99.2	104	105
CCc1c(C)c(=N)c2ccccc2n1C [MMV006278]	71	77.8	100	101
CCOC(=O)C1=C(c2ccccc2)N=c2sc(=Cc3cc(C)n(-c4ccc(F)cc4)c3C)c(=O)n2C1c1cccc(OC)c1OC (stereo not drawn) [MMV666601]	-7.05	8.55	84	87
CCOc1cc(Cl)c(C(C)NC(=O)c2cccc(OC)c2)cc1OCC (stereo not drawn) [MMV665803]	86.5	97.7	104	106
CCCCNCC(O)(c1ccc(Cl)cc1)c1ccc(Cl)cc1 [MMV665929]	95.9	99.2	104	105
COc1cccc(NC(=O)Cn2c(C)c(C#N)c3ccccc32)c1 [MMV665826]	49.1	77.8	102	101
Cc1cc(Nc2ccc(Cl)cc2)n2nc(C(F)(F)F)nc2n1 [MMV011256]	37.6	37.8	102	104
COc1ccc(C=C2SC(=N)N(c3ccccc3OC)C2=O)cc1 [MMV666691]	94.9	98.5	103	104
O=C(Nc1ccc(N2CCCCC2)c(Cl)c1)c1ccc(Br)o1 [MMV019700]	97.5	99	104	106
COc1ccc(-n2ccnc2SCC(=O)Nc2cc(C)ccc2C)c(OC)c1 [MMV019258]	63.1	80.6	102	102
O=C(CCc1ccco1)NC1CCN(CC2(c3ccc(Cl)cc3)CCC2)CC1 [MMV666108]	54.1	67.1	101	102
COc1ccc(-c2nonc2NC(=O)c2cccc(Cl)c2)cc1OC [MMV020660]	92	93.3	104	106
Oc1ccccc1CN1CCN(C(c2ccccc2)c2ccccc2)CC1 [MMV011795]	77.8	51.4	100	102
COc1cc(SC)ccc1C(=O)N1CCCC(C)C1 (stereo not drawn) [MMV056726]	65.4	67.3	86	93
CCOc1cccc(C(=O)Nc2ccc(-c3nc4ccccc4[nH]3)cc2)c1 [MMV019202]	76.2	88.4	101	100
COc1ccccc1N1CCN(C(CNS(=O)(=O)c2ccc(Cl)cc2)c2cccnc2)CC1 (stereo not drawn) [MMV665914]	49.3	59.7	96	96
COc1cccc(O)c1CN1CCC2(CCCN(Cc3ccc(F)cc3)C2)C1 (stereo not drawn) [MMV666061]	96.5	98.8	103	103
